In patent US8263596B2, “Kinase inhibitors and method of treating cancer” (University Health Network, priority 2010, dated 2012) one finds IC50 data, which are given here for 17 compounds.

One experiment addresses Aurora B (Homo sapiens, UniProt Q96GD4). The experiment is described as follows: Aurora B inhibition assay (Z-Lyte). It counts as biochemical. As to conditions: read-out: IC50 Ranges Aurora B.
The target of the next experiment is T1, human PLK4 (Homo sapiens, UniProt O00444).
T1 construct: amino terminal GST fusion of residues 1-391 of human PLK4; made in house; host or cells: E. coli
T1 sequence (O00444 1-391): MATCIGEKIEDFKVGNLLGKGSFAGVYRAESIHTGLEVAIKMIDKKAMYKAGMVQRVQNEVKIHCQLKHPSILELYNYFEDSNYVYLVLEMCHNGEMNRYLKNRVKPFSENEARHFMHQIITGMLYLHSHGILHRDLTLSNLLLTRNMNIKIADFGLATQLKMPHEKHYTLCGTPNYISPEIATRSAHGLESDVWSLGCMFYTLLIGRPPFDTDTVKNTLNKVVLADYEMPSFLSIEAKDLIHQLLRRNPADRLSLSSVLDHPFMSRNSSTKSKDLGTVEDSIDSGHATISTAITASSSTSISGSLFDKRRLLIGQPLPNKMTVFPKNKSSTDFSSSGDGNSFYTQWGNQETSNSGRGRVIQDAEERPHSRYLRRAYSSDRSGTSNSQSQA
The experiment is described as follows: PLK4 inhibition assay (indirect ELISA). The format is biochemical. Conditions: read-out: IC50 Ranges PLK4. (ELISA stands for enzyme-linked immunosorbent assay.)

Sequence of Aurora B (Q96GD4 whole entry): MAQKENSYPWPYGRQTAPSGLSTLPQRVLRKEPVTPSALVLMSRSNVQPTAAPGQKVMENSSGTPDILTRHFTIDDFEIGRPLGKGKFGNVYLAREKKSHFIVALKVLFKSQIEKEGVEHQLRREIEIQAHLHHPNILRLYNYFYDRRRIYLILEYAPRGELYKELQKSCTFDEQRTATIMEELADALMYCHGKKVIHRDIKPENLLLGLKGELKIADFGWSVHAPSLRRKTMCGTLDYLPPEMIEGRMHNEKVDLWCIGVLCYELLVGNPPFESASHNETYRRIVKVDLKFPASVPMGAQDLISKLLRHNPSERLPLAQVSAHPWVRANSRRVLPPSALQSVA
Experimental for Aurora B: Aurora B inhibition was determined using the Z-Lyte assay kit from Invitrogen. […] The % inhibition values were determined according to the manufacturer's directions and IC50 values were obtained using a non-linear 4 point logistic curve fit (XLfit4, IDBS)
Experimental for human PLK4: PLK4 activity was measured using an indirect ELISA detection system. […] The colourimetric reaction was allowed to continue for 5 minutes, followed by addition of stop solution (0.5 N sulphuric acid), and quantified by detection at 450 nm with either a monochromatic or filter based plate reader (Molecular Devices M5 or Beckman DTX880, respectively).
Compounds were pre-incubated in the presence of enzyme for 15 minutes prior to addition of ATP and the activity remaining quantified using the above described activity assay. […] The IC50 value was determined using a non-linear 4 point logistic curve fit (XLfit4, IDBS) with the formula; (A+(B/(1+((x/C)^D)))), where A=background value, B=range, C=inflection point, D=curve fit parameter.

As a reminder, the IC50 is the point on the concentration scale where inhibition reaches its midpoint. In the case of `COc1ccc2c(c1)[C@]1(C[C@H]1c1ccc3c(C#Cc4ccc(CN5CCOCC5)cc4)n[nH]c3c1)C(=O)N2` (relative stereo) [Example A138, (1R*,2S*)-5′-methoxy-2-(3-((4-(morpholinomethyl)phenyl)ethynyl)-1H-indazol-6-yl)spiro[cyclopropane-1,3′-indolin]-2′-one 2,2,2-trifluoroacetate], the IC50 on Aurora B and at human PLK4 was under 100 nM in each case.
Regarding `COc1ccc2c(c1)C1(CC1c1ccc3c(I)n[nH]c3c1)C(=O)N2` (stereo not drawn) [Example A6, (1R*,2S*)- and (1R*,2R*)-2-(3-iodo-1H-indazol-6-yl)-5-methoxyspiro-[cyclopropane-1,3′-indolin]-2′-one], the values for the IC50 on Aurora B and at human PLK4 were 100 to 1000 nM and under 100 nM, respectively.
On the same counts, the results for `COc1ccc2c(c1)[C@]1(CC1c1ccc3c(/C=C/c4cc(F)c(CN(C)C)c(F)c4)n[nH]c3c1)C(=O)N2` (stereo in doubt) [Example A215, (1R*,2S*)-(E)-2-(3-(4-((dimethylamino)methyl)-3,5-difluorostyryl)-1H-indazol-6-yl)-5′-methoxyspiro[cyclopropane-1,3′-indolin]-2′-one 2,2,2-trifluoro acetate] are under 100 nM and under 100 nM.
For the compound `O=C1Nc2ccc(F)cc2[C@]12C[C@H]2c1ccc2c(/C=C/c3ccc(N4CCOCC4)nc3)n[nH]c2c1` (relative stereo) [Example A207, (1R*,2S*)-5′-fluoro-2-(3-((E)-2-(6-morpholinopyridin-3-yl)vinyl)-1H-indazol-6-yl)spiro[cyclopropane-1,3′-indolin]-2′-one 2,2,2-trifluoroacetate], the IC50 on Aurora B and on human PLK4 was under 100 nM in each case.
On to `O=C1Nc2ccccc2[C@]12C[C@H]2c1ccc2c(-c3cccc(CN4CCOCC4)c3)n[nH]c2c1` (relative stereo) [Example A153, (1R*,2S*)-2-(3-(3-(morpholinomethyl)phenyl)-1H-indazol-6-yl)spiro [cyclopropane-1,3′-indolin]-2′-one 2,2,2-trifluoroacetate], for which the IC50 at human PLK4 lay in the range of 100 to 1000 nM.
Regarding `CCN1Cc2ccc(/C=C/c3n[nH]c4cc([C@@H]5C[C@@]56C(=O)Nc5ccc(OC)cc56)ccc34)cc2C1` (relative stereo) [Example A190, (1R*,2S*)-2-(3-((E)-2-(2-ethylisoindolin-5-yl)vinyl)-1H-indazol-6-yl)-5′-methoxyspiro[cyclopropane-1,3′-indolin]-2′-one 2,2,2-trifluoroacetate], the IC50 on Aurora B and at human PLK4 was under 100 nM throughout.
As to `CN1CCN(Cc2ccc(-c3n[nH]c4cc([C@@H]5C[C@@]56C(=O)Nc5ccccc56)ccc34)cc2)CC1` (relative stereo) [Example A155, (1R*,2S*)-2-(3-(4-((4-methylpiperazin-1-yl)methyl)phenyl)-1H-indazol-6-yl)spiro[cyclopropane-1,3′-indolin]-2′-one bis-2,2,2-trifluoroacetate], the IC50 was 100 to 1000 nM on Aurora B and under 100 nM at human PLK4.
On to `CC(C)CCN1C(=O)[C@@]2(C[C@H]2c2ccc3c(/C=C/c4ccc(CN(C)C)cc4)n[nH]c3c2)c2ccccc21` (relative stereo) [Example A176, (1R*,2S*)-(E)-2-(3-(4-((dimethylamino)methyl)styryl)-1H-indazol-6-yl)-1′-isopentylspiro[cyclopropane-1,3′-indolin]-2′-one], for which the IC50 on Aurora B is 100 to 1000 nM; on human PLK4, under 100 nM.
Regarding `COc1ccc2c(c1)[C@]1(C[C@H]1c1ccc3c(-c4ccc(N5CCC(N(C)C)CC5)cc4)n[nH]c3c1)C(=O)N2` [Example A120, (1R,2S)-2-(3-(4-(4-(dimethylamino)piperidin-1-yl)phenyl)-1H-indazol-6-yl)-5′-methoxyspiro[cyclopropane-1,3′-indolin]-2′-one 2,2,2-trifluoroacetate], the IC50 at Aurora B and on human PLK4 was under 100 nM throughout.
On to `CN1CCN(c2ccc(-c3n[nH]c4cc([C@@H]5C[C@@]56C(=O)Nc5ccc(Br)cc56)ccc34)cn2)CC1` (relative stereo) [Example A19, (1R*,2S*)-5′-bromo-2-(3-(6-(4-methylpiperazin-1-yl)pyridin-3-yl)-1H-indazol-6-yl)spiro[cyclopropane-1,3′-indolin]-2′-one], for which the IC50 on Aurora B and on human PLK4 was under 100 nM in each case.
Consider `COc1ccc2c(c1)[C@]1(C[C@H]1c1ccc3c(-c4ccc(CN5CCN(C)CC5)cc4)n[nH]c3c1)C(=O)N2` (relative stereo) [Example A140, (1R*,2S*)-5′-methoxy-2-(3-(4-((4-methylpiperazin-1-yl)methyl)phenyl)-1H-indazol-6-yl)spiro[cyclopropane-1,3′-indolin]-2′-one bis-2,2,2-trifluoro acetate], for which the IC50 on Aurora B and at human PLK4 was under 100 nM in each case.
Consider `COc1ccc2c(c1)[C@]1(C[C@H]1c1ccc3c(/C=C/c4ccc(N5CCN(C(C)C)CC5)cc4)n[nH]c3c1)C(=O)N2` (relative stereo) [Example A189, (1R*,2S*)-(E)-2-(3-(4-(4-isopropylpiperazin-1-yl)styryl)-1H-indazol-6-yl)-5′-methoxyspiro[cyclopropane-1,3′-indolin]-2′-one 2,2,2-trifluoroacetate], for which the IC50 at Aurora B and at human PLK4 was under 100 nM in each case.
Consider `COc1ccc2c(c1)[C@]1(C[C@H]1c1ccc3c(-c4ccc(N5CCC(N(C)C)CC5)cc4)n[nH]c3c1)C(=O)N2` (relative stereo) [Example A119, (1R*,2S*)-2-(3-(4-(4-(dimethylamino)piperidin-1-yl)phenyl)-1H-indazol-6-yl)-5′-methoxy spiro[cyclopropane-1,3′-indolin]-2′-one 2,2,2-trifluoroacetate], for which the IC50 at Aurora B and at human PLK4 was under 100 nM in each case.
Turning to `COc1ccc2c(c1)[C@]1(C[C@H]1c1ccc3c(/C=C/c4ccc(N5CCOCC5)nc4)n[nH]c3c1)C(=O)N2` (relative stereo) [Example A213, (1R*,2S*)-5′-methoxy-2-(3-((E)-2-(6-morpholinopyridin-3-yl)vinyl)-1H-indazol-6-yl)spiro[cyclopropane-1,3′-indolin]-2′-one 2,2,2-trifluoroacetate], the IC50 at Aurora B and on human PLK4 was under 100 nM in each case.
Take `COc1ccc2c(c1)[C@]1(C[C@H]1c1ccc3c(-c4ccc(N5CCC(O)CC5)cc4)n[nH]c3c1)C(=O)N2` (relative stereo) [Example A118, (1R*,2S*)-2-(3-(4-(4-hydroxypiperidin-1-yl)phenyl)-1H-indazol-6-yl)-5′-methoxyspiro[cyclopropane-1,3′-indolin]-2′-one 2,2,2-trifluoroacetate]: the IC50 at human PLK4 was under 100 nM.
Same read-out and setting: the value for `O=C1Nc2ncc(Br)cc2[C@]12C[C@H]2c1ccc2cn[nH]c2c1` (racemic) [Example A12, (1R*,2S*)-5′-bromo-2-(1H-indazol-6-yl)spiro[cyclopropane-1,3′-pyrrolo[2,3-b]pyridin]-2′(1′H)-one] was 100 to 1000 nM.
`CN1CCN(c2ccc(-c3n[nH]c4cc([C@@H]5C[C@@]56C(=O)Nc5ccc(F)cc56)ccc34)cn2)CC1` (relative stereo) [Example A210, (1R*,2S*)-5′-fluoro-2-(3-(6-(4-methylpiperazine-1-yl)pyridine-3-yl)-1H-indazol-6-yl)-spiro[cyclopropane-1,3′-indolin]-2′-one]: the half-maximal inhibitory concentration (IC50) at Aurora B is under 100 nM.
